Test results taken from patent US20220119354A1, “DIAMINO-SUBSTITUTED PYRIDINES AND PYRIMIDINES AS HERBICIDES” (FMC Corporation, priority 2019, published 2022).

Legend:
Type in all cases: in vivo
[1] = test system: ryegrass, Italian (Lolium multiflorum); test: Test A postemergence, Italian ryegrass; conditions: 0 to 100 scale, 0 no effect, 100 complete control
In short: (§1)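 Ratings reflect visual comparison with untreated controls roughly 10 d after greenhouse application, 0 meaning no effect and 100 complete control. Treatment was by directed soil spray at planting or by spray onto one- to two-leaf plants in loam/sand pots.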

[2] = test system: pigweed (Amaranthus retroflexus); test: Test A preemergence, pigweed; conditions: 0 to 100 scale, 0 is no effect, 100 is complete control
In short: as §1

[3] = test system: foxtail, giant (Setaria faberii); test: Test A preemergence, giant foxtail; conditions: 0 to 100 scale, 0 is no effect, 100 is complete control
In short: as §1

[4] = test system: wheat (Triticum aestivum); test: Test A postemergence, wheat; conditions: 0 to 100 scale, 0 no effect, 100 complete control
In short: as §1

[5] = test system: ragweed (common ragweed, Ambrosia elatior); test: Test A preemergence, ragweed; conditions: 0 to 100 scale, 0 is no effect, 100 is complete control
In short: as §1

[6] = test system: sedge, umbrella (small-flower umbrella sedge, Cyperus difformis); test: Test B flooded paddy test, umbrella sedge; conditions: Flood, 250 g ai/ha, applied to paddy water, 2-leaf stage, visual evaluation after 13 to 15 d
In short: (§2)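 Pots flooded to 3 cm above the soil when treated, with test compound added straight to the water and the flood maintained. Treated plants were at the 2-leaf stage and stayed 13–15 d in greenhouse. Response versus untreated controls scored visually from 0 (no effect) to 100 (complete control).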

[7] = test system: blackgrass (Alopecurus myosuroides); test: Test A postemergence, blackgrass; conditions: 0 to 100 scale, 0 no effect, 100 complete control
In short: as §1

[8] = test system: pigweed (Amaranthus retroflexus); test: Test A postemergence, pigweed; conditions: 0 to 100 scale, 0 no effect, 100 complete control
In short: as §1

[9] = test system: rice (Oryza sativa); test: Test B flooded paddy test, rice; conditions: Flood, 250 g ai/ha, applied to paddy water, 2-leaf stage, visual evaluation after 13 to 15 d
In short: as §2

[10] = test system: barnyardgrass (Echinochloa crus-galli); test: Test B flooded paddy test, barnyardgrass; conditions: Flood, 250 g ai/ha, applied to paddy water, 2-leaf stage, visual evaluation after 13 to 15 d
In short: as §2

[11] = test system: kochia (Kochia scoparia); test: Test A preemergence, kochia; conditions: 0 to 100 scale, 0 is no effect, 100 is complete control
In short: as §1

[12] = test system: barnyardgrass (Echinochloa crus-galli); test: Test A preemergence, barnyardgrass; conditions: 0 to 100 scale, 0 is no effect, 100 is complete control
In short: as §1

[13] = test system: ragweed (common ragweed, Ambrosia elatior); test: Test A postemergence, ragweed; conditions: 0 to 100 scale, 0 no effect, 100 complete control
In short: as §1

[14] = test system: foxtail, giant (Setaria faberii); test: Test A postemergence, giant foxtail; conditions: 0 to 100 scale, 0 no effect, 100 complete control
In short: as §1

[15] = test system: corn (Zea mays); test: Test A postemergence, corn; conditions: 0 to 100 scale, 0 no effect, 100 complete control
In short: as §1

[16] = test system: barnyardgrass (Echinochloa crus-galli); test: Test A postemergence, barnyardgrass; conditions: 0 to 100 scale, 0 no effect, 100 complete control
In short: as §1

[17] = test system: kochia (Kochia scoparia); test: Test A postemergence, kochia; conditions: 0 to 100 scale, 0 no effect, 100 complete control
In short: as §1

[18] = test system: ryegrass, Italian (Lolium multiflorum); test: Test A preemergence, Italian ryegrass; conditions: 0 to 100 scale, 0 is no effect, 100 is complete control
In short: as §1

[19] = test system: galium (catchweed bedstraw, Galium aparine); test: Test A postemergence, galium; conditions: 0 to 100 scale, 0 no effect, 100 complete control
In short: as §1

[20] = test system: ducksalad (Heteranthera limosa); test: Test B flooded paddy test, ducksalad; conditions: Flood, 250 g ai/ha, applied to paddy water, 2-leaf stage, visual evaluation after 13 to 15 d
In short: as §2

SMILES | Plant response rating, Ryegrass, Italian ([1]; 31 g ai/ha) | Plant response rating, Ryegrass, Italian ([1]; 125 g ai/ha) | Pigweed plant response rating ([2]; 31 g ai/ha) | Pigweed plant response rating ([2]; 125 g ai/ha) | Foxtail, Giant plant response rating ([3]; 31 g ai/ha) | Foxtail, Giant plant response rating ([3]; 125 g ai/ha) | Plant response rating, Wheat ([4]; 31 g ai/ha) | Plant response rating, Wheat ([4]; 125 g ai/ha) | Ragweed plant response rating ([5]; 31 g ai/ha) | Ragweed plant response rating ([5]; 125 g ai/ha) | Plant response rating, Sedge, Umbrella (0 to 100 scale, 0 is no effect, 100 is complete control) [6] | Plant response rating, Blackgrass ([7]; 31 g ai/ha) | Plant response rating, Blackgrass ([7]; 125 g ai/ha) | Plant response rating, Pigweed ([8]; 31 g ai/ha) | Plant response rating, Pigweed ([8]; 125 g ai/ha) | Plant response rating, Rice (0 to 100 scale, 0 is no effect, 100 is complete control) [9] | Plant response rating, Barnyardgrass (0 to 100 scale, 0 is no effect, 100 is complete control) [10] | Kochia plant response rating ([11]; 31 g ai/ha) | Kochia plant response rating ([11]; 125 g ai/ha) | Barnyardgrass plant response rating ([12]; 31 g ai/ha) | also measured
C[C@@H](Nc1ncc([S+](C)[O-])c(N)n1)c1cc2ccccc2s1 (stereo partly drawn) [Compound 110] | 0 | 0 | 0 | 30 | 0 | 0 | 0 | 0 | 40 | 80 | 90 | 0 | 0 | 60 | 80 | 15 | 20 | 0 | 0 | 0 | Barnyardgrass plant response rating ([12]; 125 g ai/ha): 0; Plant response rating, Ragweed ([13]; 31 g ai/ha): 0; Plant response rating, Ragweed ([13]; 125 g ai/ha): 30; Plant response rating, Foxtail, Giant ([14]; 31 g ai/ha): 0; Plant response rating, Foxtail, Giant ([14]; 125 g ai/ha): 0; Plant response rating, Corn ([15]; 31 g ai/ha): 0; Plant response rating, Corn ([15]; 125 g ai/ha): 10; Plant response rating, Barnyardgrass ([16]; 31 g ai/ha): 0; Plant response rating, Barnyardgrass ([16]; 125 g ai/ha): 10; Plant response rating, Kochia ([17]; 31 g ai/ha): 0; Plant response rating, Kochia ([17]; 125 g ai/ha): 10; Ryegrass, Italian plant response rating ([18]; 31 g ai/ha): 0; Ryegrass, Italian plant response rating ([18]; 125 g ai/ha): 0; Plant response rating, Galium ([19]; 31 g ai/ha): 30; Plant response rating, Galium ([19]; 125 g ai/ha): 70; Plant response rating, Ducksalad (0 to 100 scale, 0 is no effect, 100 is complete control) [20]: 60
C[C@@H](Nc1nc(N)c(C(F)(F)F)c(C(F)F)n1)c1cc2ccccc2o1 [Compound 111] | 0 | 0 | 10 | 70 | 0 | 10 | 0 | 0 | 30 | 90 | 0 | 0 | 0 | 50 | 80 | 0 | 0 | 40 | 70 | 0 | Barnyardgrass plant response rating ([12]; 125 g ai/ha): 0; Plant response rating, Ragweed ([13]; 31 g ai/ha): 40; Plant response rating, Ragweed ([13]; 125 g ai/ha): 50; Plant response rating, Foxtail, Giant ([14]; 31 g ai/ha): 0; Plant response rating, Foxtail, Giant ([14]; 125 g ai/ha): 0; Plant response rating, Corn ([15]; 31 g ai/ha): 0; Plant response rating, Corn ([15]; 125 g ai/ha): 20; Plant response rating, Barnyardgrass ([16]; 31 g ai/ha): 10; Plant response rating, Barnyardgrass ([16]; 125 g ai/ha): 0; Plant response rating, Kochia ([17]; 31 g ai/ha): 0; Plant response rating, Kochia ([17]; 125 g ai/ha): 60; Ryegrass, Italian plant response rating ([18]; 31 g ai/ha): 0; Ryegrass, Italian plant response rating ([18]; 125 g ai/ha): 0; Plant response rating, Galium ([19]; 31 g ai/ha): 20; Plant response rating, Galium ([19]; 125 g ai/ha): 50; Plant response rating, Ducksalad (0 to 100 scale, 0 is no effect, 100 is complete control) [20]: 0
